Here are results for 4 compounds from patent US10682420B2, “Breast cancer therapy based on hormone receptor status with nanoparticles comprising taxane” (Abraxis BioScience, LLC, priority 2006, dated 2020).

Data set [1] concerns MDA-MB-435 human breast tumor xenografts. The data set is described as follows: HKP and Abraxane in MDA-MB-435 xenografts. It counts as in vivo, mice. The note with it: nineteen weeks of treatment; HKP 250 ug i.v. weekly x16; Abraxane 10 mg/kg/day i.v. x5 days. From the text: The antiangiogenic activity of small synthetic pro-apoptotic peptides composed of two functional domains, one targeting the CD13 receptors (aminopeptidase N) on tumor microvessels and the other disrupting the mitochondrial membrane following internalization have previously been reported. See Nat Med. 1999 September; 5(9): 1032-8.
Methods: MDA-MB-435 human tumor xenografts were established at an average tumor volume of 100 mm^3, mice were randomized into groups of 12-13 animals and treated with HKP, Abraxane®, or HKP and Abraxane®. HKP was delivered i.v. (250 ug), once a week, for 16 weeks. Abraxane® was administered i.v., daily for 5 days at 10 mg/kg/day only for the first week of treatment. The Abraxane® dose used was substantially below its MTD (30 mg/kg/day, qd×5) to prevent the tumor from complete regression so effect of HKP could be noted.

A further data set concerns metastatic breast cancer. The settings on record: in vivo.
Data set [2] has as its system cells. In words: In vitro cellular cytotoxicity assay. It counts as cell-based. The settings on record: Abraxane 1 to 24 nM. The protocol: Cells were treated with Abraxane® in a range of concentrations (1 to 24 nM).
The subject of data set [3] is cells. The data set is described as follows: In vitro clonogenic assay. The format is cell-based. The protocol: Cells were treated with saline control, Abraxane® alone, VEGF-A alone, Avastin® alone, Abraxane®+VEGF-A or Abraxane®+Avastin®.
Data set [4] relates to Luciferase-expressing MDA-MB-231 human breast cancer xenografts. In words: Abraxane and Avastin on growth of luciferase-expressing MDA-MB-231 xenografts. The format is in vivo, female nude (nu/nu) mice. The protocol:
Abraxane®, either alone or in combination, was administered at 10 mg/kg/day daily for 5 days in two cycles separated by 1 week. Some groups were administered Abraxane® at 10 mg/kg daily for 5 days for only one cycle. […] Mice were monitored for tumor growth and drug toxicity. Mice were sacrificed when the mean tumor volume in the saline-treated control group reached 2000 mm^3.
Tumor growth inhibition (TGI) was calculated by comparing mean tumor volume of test groups to that of the control group at the last measurement of the control group.

The subject of data set [5] is metastasis of luciferase-expressing MDA-MB-231 tumor cells to the lymph nodes and lungs. In words: Abraxane and Avastin on metastasis by luciferase activity. The format is in vivo, female nude (nu/nu) mice. The protocol:
Abraxane®, either alone or in combination, was administered at 10 mg/kg/day daily for 5 days in two cycles separated by 1 week. Some groups were administered Abraxane® at 10 mg/kg daily for 5 days for only one cycle. […] Mice were sacrificed when the mean tumor volume in the saline-treated control group reached 2000 mm^3. Axillary lymph nodes and both lobes of the lungs were removed from each mouse and cellular extracts were prepared. The presence of MDA-MB-231 cells in these tissues was evaluated by analysis of luciferase activity and was an indicator of metastasis from the primary tumor. Luciferase activity was measured in extracts from 10 lymph nodes and both lobes of the lungs on the day of sacrifice (day 65 after tumor implantation). A value greater than 500 light units per 20 μl lysate was rated as positive for presence of MDA-MB-231 cells and for incidence of metastasis.
As used herein, incidence refers to the presence of luciferase activity in tissue from each mouse.

For data set [6] the following is noted: mouse, in vivo.
Description: Methods: Toxicity of Abraxane® and Taxotere® was compared in a dose-ranging study in nude mice given the drugs on a q4d×3 schedule.

Description for metastatic breast cancer: Patients were HER-2/neu negative with a life expectancy of greater than 3 months. Patients had no prior chemotherapy for metastatic disease, no prior capecitabine therapy, and no prior fluoropyrimidine therapy and paclitaxel chemotherapy given in an adjuvant setting.
The primary endpoint was objective response rate and safety/toxicity, with evaluation performed after every 2 cycles. A secondary endpoint was time to progression.

Take CNGRC-GG-d(KLAKLAK)2 [HKP]: the tumor volume in data set [1] is listed as 4,372 mm^3.

For the compound `CCCCCOC(=O)Nc1nc(=O)n([C@@H]2O[C@H](C)[C@@H](O)[C@H]2O)cc1F` [capecitabine], the “main toxicity related to the agent within the combination” value with metastatic breast cancer is “hand foot syndrome”.

Regarding Avastin®: anti-VEGF antibody, the “effect of addition on in vitro cytotoxicity of Abraxane” value with cells [2] is “increased the in vitro cytotoxicity of Abraxane®”. The “number of colonies formed” value in the data set on cells [3] is reported as “slight reduction in the number of colonies formed”. Besides, the “% TGI” value in data set [4] (Avastin Dose 4 mg/kg) amounted to 12.56%. The “Mean Tumor Volume (mm^3)” value in data set [4] (Avastin Dose 4 mg/kg twice a week for 6 weeks) is 2089 ± 251 mm^3. In addition, in data set [4] (Avastin Dose 4 mg/kg, day 65), the “% Complete Regression” value worked out at 0%. For the same compound, in data set [5], the “metastasis by luciferase activity in tissue extracts” value is “did not significantly inhibit metastasis”.

For Taxotere®, the “maximum tolerated dose (MTD)” value in data set [6] worked out at 15 mg/kg.
